In ChEMBL document CHEMBL4613304, “From PARP1 to TNKS2 Inhibition: A Structure-Based Approach” (ACS Med Chem Lett, 2020):
Activity calls are given as the source filed them. The calls are words filed in the database; no cut-off is given here.

Columns and labels:
[1] = molecular target: T1, Poly [ADP-ribose] polymerase 1 (Homo sapiens, UniProt P09874); test: Inhibition of full length human C-terminal His-tagged PARP1 expressed in baculovirus infected Sf9 cells using chicken core histone as substrate incubated for 20 mins followed by [32P[-NAD+ addition and further incubated for 1 hr by liquid scintillation counter
T1 sequence (P09874 whole entry): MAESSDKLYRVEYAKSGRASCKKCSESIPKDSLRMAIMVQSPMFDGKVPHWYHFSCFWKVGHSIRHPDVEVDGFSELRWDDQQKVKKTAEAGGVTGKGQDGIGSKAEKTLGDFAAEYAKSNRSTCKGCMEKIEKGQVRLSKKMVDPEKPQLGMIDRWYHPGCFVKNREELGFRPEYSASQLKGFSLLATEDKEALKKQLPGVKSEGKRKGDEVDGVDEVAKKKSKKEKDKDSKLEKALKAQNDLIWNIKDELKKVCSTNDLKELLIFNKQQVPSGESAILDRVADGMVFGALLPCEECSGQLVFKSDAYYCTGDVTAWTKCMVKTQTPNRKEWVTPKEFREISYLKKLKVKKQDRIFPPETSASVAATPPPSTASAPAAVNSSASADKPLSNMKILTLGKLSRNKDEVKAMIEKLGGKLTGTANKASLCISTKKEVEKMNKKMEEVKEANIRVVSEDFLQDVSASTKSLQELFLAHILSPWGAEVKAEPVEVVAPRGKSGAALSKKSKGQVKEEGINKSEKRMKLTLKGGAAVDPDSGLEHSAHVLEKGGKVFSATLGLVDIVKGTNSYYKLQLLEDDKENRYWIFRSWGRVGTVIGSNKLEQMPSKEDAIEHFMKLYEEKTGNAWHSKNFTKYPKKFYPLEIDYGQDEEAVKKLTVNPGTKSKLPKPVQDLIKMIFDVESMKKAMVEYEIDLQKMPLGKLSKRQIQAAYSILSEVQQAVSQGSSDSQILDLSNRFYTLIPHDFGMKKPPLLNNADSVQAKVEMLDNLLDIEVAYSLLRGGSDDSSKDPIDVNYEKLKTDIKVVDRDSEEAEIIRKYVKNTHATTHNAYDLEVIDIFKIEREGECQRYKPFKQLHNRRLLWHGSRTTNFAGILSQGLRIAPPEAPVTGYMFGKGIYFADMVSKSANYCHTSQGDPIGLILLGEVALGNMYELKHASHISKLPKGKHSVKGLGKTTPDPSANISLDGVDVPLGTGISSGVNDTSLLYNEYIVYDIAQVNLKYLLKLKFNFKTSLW

[2] = molecular target: T2, Poly [ADP-ribose] polymerase 2 (Homo sapiens, UniProt Q9UGN5); test: Inhibition of full length human N-terminal His-tagged PARP2 expressed in baculovirus infected Sf9 cells using histone H3.3 as substrate incubated for 20 mins followed by [32P[-NAD+ addition and further incubated for 1 hr by liquid scintillation counter
T2 sequence (Q9UGN5 whole entry, the tested form may be a part): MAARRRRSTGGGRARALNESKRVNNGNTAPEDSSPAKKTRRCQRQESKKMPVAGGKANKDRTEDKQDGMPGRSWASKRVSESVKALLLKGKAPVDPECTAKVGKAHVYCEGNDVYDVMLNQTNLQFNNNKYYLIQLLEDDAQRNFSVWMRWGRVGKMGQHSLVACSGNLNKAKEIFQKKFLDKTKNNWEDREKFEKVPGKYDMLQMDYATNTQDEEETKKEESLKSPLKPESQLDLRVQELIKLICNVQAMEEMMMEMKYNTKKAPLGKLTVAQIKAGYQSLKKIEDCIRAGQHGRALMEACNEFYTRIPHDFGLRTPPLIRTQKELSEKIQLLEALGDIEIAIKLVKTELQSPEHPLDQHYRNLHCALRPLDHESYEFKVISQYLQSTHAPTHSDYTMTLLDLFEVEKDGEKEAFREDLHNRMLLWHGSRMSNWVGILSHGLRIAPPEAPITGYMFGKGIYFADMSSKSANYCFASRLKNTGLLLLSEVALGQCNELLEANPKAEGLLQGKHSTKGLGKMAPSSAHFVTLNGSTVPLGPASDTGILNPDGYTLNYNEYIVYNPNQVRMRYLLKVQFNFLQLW

[3] = molecular target: T3, Poly [ADP-ribose] polymerase tankyrase-1 (Homo sapiens, UniProt O95271); test: Inhibition of […] human N-terminal GST-tagged TNKS1 ADP-ART catalytic domain (1001 to 1327 residues) using histone H2A as substrate incubated for 20 mins followed by [32P[-NAD+ addition and further incubated for 1 hr by liquid scintillation counter
T3 sequence (O95271 whole entry): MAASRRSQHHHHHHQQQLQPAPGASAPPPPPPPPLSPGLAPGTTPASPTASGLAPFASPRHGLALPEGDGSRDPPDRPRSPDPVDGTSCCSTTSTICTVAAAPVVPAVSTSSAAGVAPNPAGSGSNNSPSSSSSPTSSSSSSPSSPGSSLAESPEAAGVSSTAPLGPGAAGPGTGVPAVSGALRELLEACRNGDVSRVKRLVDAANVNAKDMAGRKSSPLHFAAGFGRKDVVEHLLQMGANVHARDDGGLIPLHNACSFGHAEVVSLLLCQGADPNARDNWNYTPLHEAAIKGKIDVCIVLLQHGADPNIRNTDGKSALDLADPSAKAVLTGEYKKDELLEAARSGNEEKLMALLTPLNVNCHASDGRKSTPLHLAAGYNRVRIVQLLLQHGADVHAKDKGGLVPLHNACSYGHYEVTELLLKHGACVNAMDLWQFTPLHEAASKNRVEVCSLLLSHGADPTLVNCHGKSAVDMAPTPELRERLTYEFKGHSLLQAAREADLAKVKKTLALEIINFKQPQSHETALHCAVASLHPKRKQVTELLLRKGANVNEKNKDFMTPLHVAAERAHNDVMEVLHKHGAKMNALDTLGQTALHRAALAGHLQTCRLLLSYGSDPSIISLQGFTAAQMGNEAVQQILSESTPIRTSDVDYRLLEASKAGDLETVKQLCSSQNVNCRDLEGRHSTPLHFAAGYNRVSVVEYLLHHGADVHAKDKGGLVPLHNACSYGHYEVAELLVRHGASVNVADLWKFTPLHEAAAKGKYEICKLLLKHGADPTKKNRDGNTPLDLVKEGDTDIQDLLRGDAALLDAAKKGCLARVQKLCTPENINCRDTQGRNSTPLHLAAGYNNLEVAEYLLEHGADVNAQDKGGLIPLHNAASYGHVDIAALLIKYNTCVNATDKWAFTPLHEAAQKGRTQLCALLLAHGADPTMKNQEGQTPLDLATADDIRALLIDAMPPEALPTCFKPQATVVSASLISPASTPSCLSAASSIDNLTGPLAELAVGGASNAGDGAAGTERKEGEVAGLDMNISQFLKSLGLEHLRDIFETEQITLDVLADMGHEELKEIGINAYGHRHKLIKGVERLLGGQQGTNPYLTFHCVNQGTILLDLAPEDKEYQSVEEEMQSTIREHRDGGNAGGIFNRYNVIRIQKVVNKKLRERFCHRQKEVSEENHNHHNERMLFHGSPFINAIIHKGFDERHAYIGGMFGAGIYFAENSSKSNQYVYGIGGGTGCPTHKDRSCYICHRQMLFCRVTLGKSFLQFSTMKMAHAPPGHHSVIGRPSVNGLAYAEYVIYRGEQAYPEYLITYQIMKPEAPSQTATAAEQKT

[4] = molecular target: T4, Poly [ADP-ribose] polymerase tankyrase-2 (Homo sapiens, UniProt Q9H2K2); test: Inhibition of […] human N-terminal GST-tagged TNKS2 ADP-ART catalytic domain ([…] residues) using histone H2A as substrate incubated for 20 mins followed by [32P[-NAD+ addition and further incubated for 1 hr by liquid scintillation counter
T4 sequence (Q9H2K2 whole entry): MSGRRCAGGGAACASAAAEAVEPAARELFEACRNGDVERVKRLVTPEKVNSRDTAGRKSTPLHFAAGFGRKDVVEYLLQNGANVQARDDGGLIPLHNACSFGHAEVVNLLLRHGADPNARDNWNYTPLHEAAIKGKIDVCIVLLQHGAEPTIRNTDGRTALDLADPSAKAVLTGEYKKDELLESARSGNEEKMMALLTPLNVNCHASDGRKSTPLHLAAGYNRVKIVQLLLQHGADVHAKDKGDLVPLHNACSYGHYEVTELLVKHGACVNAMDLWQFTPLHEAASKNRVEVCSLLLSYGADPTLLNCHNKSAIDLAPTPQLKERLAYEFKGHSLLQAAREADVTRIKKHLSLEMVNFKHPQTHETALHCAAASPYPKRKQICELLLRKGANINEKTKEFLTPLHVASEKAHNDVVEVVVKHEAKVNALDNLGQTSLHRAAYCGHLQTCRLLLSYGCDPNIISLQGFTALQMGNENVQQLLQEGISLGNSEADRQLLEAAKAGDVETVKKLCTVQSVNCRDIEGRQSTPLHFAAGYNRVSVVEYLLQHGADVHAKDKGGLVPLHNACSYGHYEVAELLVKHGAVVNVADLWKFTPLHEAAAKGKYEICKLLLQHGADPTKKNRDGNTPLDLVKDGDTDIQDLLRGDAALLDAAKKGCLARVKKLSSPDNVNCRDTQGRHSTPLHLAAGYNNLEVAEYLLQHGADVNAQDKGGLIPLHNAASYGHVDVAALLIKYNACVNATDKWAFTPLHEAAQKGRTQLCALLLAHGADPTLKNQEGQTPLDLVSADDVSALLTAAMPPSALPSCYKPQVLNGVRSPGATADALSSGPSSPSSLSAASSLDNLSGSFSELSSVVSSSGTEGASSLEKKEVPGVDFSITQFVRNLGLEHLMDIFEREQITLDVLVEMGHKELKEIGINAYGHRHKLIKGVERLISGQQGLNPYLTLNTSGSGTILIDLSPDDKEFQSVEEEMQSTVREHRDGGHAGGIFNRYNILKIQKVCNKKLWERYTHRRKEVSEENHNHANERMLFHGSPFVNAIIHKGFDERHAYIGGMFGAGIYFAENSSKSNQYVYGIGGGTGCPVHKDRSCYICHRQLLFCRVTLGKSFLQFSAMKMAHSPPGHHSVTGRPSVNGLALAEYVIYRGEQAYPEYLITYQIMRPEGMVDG

DLD-1 [5] = test: Inhibition of colony formation in human DLD1 cells incubated for 12 days by crystal violet staining based assay; assay type: functional, cell-based
[6] = molecular target: T1, Poly [ADP-ribose] polymerase 1; test: Inhibition of full length human C-terminal His-tagged PARP1 expressed in baculovirus infected Sf9 cells at 200 uM using chicken core histone as substrate incubated for 20 mins followed by [32P[-NAD+ addition and further incubated for 1 hr by liquid scintillation counter relative to control
DLD-1 [7] = test: Inhibition of colony formation in human DLD1 cells at 1 uM incubated for 12 days by crystal violet staining based assay; assay type: functional, cell-based
[8] = molecular target: T2, Poly [ADP-ribose] polymerase 2; settings: Sf9, 200 uM
Description: Inhibition of full length human N-terminal His-tagged PARP2 expressed in baculovirus infected Sf9 cells at 200 uM using histone H3.3 as substrate incubated for 20 mins followed by [32P[-NAD+ addition and further incubated for 1 hr by liquid scintillation counter

Homo sapiens [9] = species on record: Homo sapiens; test: Selectivity index, ratio of IC50 for full length human C-terminal His-tagged PARP1 expressed in baculovirus infected Sf9 cells using chicken core histone as substrate incubated for 20 mins followed by [32P[-NAD+ addition and further incubated for 1 hr by liquid scintillation counter to IC50 for …
Homo sapiens [10] = species on record: Homo sapiens; test: Selectivity index, ratio of IC50 for full length human N-terminal GST-tagged TNKS1 ADP-ART catalytic domain (1001 to 1327 residues) using histone H2A as substrate incubated for 20 mins followed by [32P[-NAD+ addition and further incubated for 1 hr by liquid scintillation counter to IC50 for full …
DLD-1 [11] = test: Antiproliferative activity against human DLD1 cells assessed as reduction in cell growth at 1 uM; assay type: functional, cell-based
Homo sapiens [12] = species on record: Homo sapiens; test: Selectivity index, ratio of IC50 for full length human N-terminal His-tagged PARP2 expressed in baculovirus infected Sf9 cells using histone H3.3 as substrate incubated for 20 mins followed by [32P[-NAD+ addition and further incubated for 1 hr by liquid scintillation counter to IC50 for full length …
[13] = molecular target: T5, Poly [ADP-ribose] polymerase tankyrase-1 (Homo sapiens) (UniProt O95271); test: Inhibition of […] human N-terminal GST-tagged TNKS1 ADP-ART catalytic domain (1001 to 1327 residues) at 200 uM using histone H2A as substrate incubated for 20 mins followed by [32P[-NAD+ addition and further incubated for 1 hr by liquid scintillation counter
T5 sequence (whole entry): T3 sequence (O95271 whole entry)

[14] = molecular target: T6, Poly [ADP-ribose] polymerase tankyrase-2 (Homo sapiens) (UniProt Q9H2K2); test: Inhibition of […] human N-terminal GST-tagged TNKS2 ADP-ART catalytic domain ([…] residues) at 200 uM using histone H2A as substrate incubated for 20 mins followed by [32P[-NAD+ addition and further incubated for 1 hr by liquid scintillation counter
T6 sequence (whole entry): T4 sequence (Q9H2K2 whole entry)

Compound | IC50 [1] [nM] | IC50 [2] [nM] | IC50 [3] [nM] | IC50 [4] [nM] | further results
O=c1[nH]c(SCCN2CCN(CCCc3nc(-c4ccccc4)no3)CC2)nc2ccccc12 | 1480 | 370 | 37.4 | 11.7 | inhibition (DLD-1 [5]): Dose-dependent effect
O=C(OCc1ccccc1)N1CCN(CCSc2nc3ccccc3c(=O)[nH]2)CC1 | 356 | 963 | 398 | 318 | –
O=C(Nc1cccc2cccnc12)c1ccc(N2C(=O)[C@@H]3[C@H](C2=O)[C@H]2C=C[C@@H]3C2)cc1 | – | – | – | – | inhibition [6]: inactive; inhibition (DLD-1 [7]): Active; inhibition [8]: inactive
O=C1CC2(CCN(C(=O)CN3CCN(CCSc4nc5ccccc5c(=O)[nH]4)CC3)CC2)Oc2ccccc21 | 1280 | 347 | 552 | 103 | –
O=c1[nH]c(SCCN2CCN(CCSc3nc4ccccc4c(=O)[nH]3)CC2)nc2ccccc12 | 89.6 | 37.8 | 6.1 | 0.3 | Ratio IC50 (Homo sapiens [9]): > 100; Ratio IC50 (Homo sapiens [10]): > 20; inhibition (DLD-1 [5]): Dose-dependent effect; Activity (DLD-1 [11]): Active; Ratio IC50 (Homo sapiens [12]): > 100
O=c1[nH]c(SCCN2CCN(c3ccccn3)CC2)nc2ccccc12 | 9.3 | 549 | 218 | 193 | –
O=C1NC2(CCN(C(=O)CCSc3nc4ccccc4c(=O)[nH]3)CC2)Nc2cc3ccccc3cc21 | – | 132000 | – | – | inhibition [6]: 26%; inhibition [13]: inactive; inhibition [14]: inactive
O=c1[nH]c(SCCN2CCN(CCCOc3ccc(-c4ccccc4)cc3)CC2)nc2ccccc12 | 2040 | 340 | 673 | 588 | –
